Reference: PMC8308585, “Design and Synthesis of Novel Thiazolo[5,4-d]pyrimidine Derivatives with High Affinity for Both the Adenosine A1 and A2A Receptors, and Efficacy in Animal Models of Depression” (Pharmaceuticals, 2021)

Experiments:
mice [1] = test: Forced swimming test; format: in vivo, mouse; details: mouse FST, 15 mg kg^−1 s.c., single dose 26 min before test, last 4 min of 6 min, mean ± SEM of 10 mice; vehicle 193.7 ± 8.9
Experimental: (§1) To execute the tests, mice were divided into groups, each of which consisted of 10 animals. The tests were performed after a single p.o. administration of compound 18 at different dosages (10 mg Kg^−1 and 30 mg Kg^−1). Amitriptyline (15 mg Kg^−1) was used as the reference drug. Compounds were acutely administrated 26 min before the beginning of the experiment. In the FST (Table 4), the duration of immobility was recorded during the last 4 min of the 6 min test.
(§2) Male CD-1 albino mice (22–25 g; Envigo, Varese, Italy) were housed in CeSAL (Centro Stabulazione Animali da Laboratorio, University of Florence, Florence, Italy) and used at least one week after their arrival. Animals were housed in 26 cm × 41 cm cages (12 mice each) and fed with a standard laboratory diet and tap water ad libitum. They were kept at 23 ± 1 °C with a 12 h light/dark cycle, light at 7 a.m. Compound 18 was administered per o.s. whereas amitriptyline was by a s.c. route following the most widely used approach reported in the literature.
Mice were individually placed into glass cylinders (height: 25 cm, diameter: 10 cm) containing 12 cm of water maintained at 22–23 °C for 6 min. Immobility was considered the animal floated in the water, in an upright position, and made only small movements to keep its head above water. The immobility time was recorded during the last 4-min of the 6-min test. A decrease in the duration of immobility is indicative of an antidepressant-like effect.
(§3) Behavioral tests were performed by visual observation by researchers blinded to the treatments. Results were expressed as means ± SEM, variance was analyzed by ANOVA. A Bonferroni’s significant difference procedure was used as post-hoc comparison. p values of less than 0.05 and 0.01 were considered significant. Data were analyzed using the “Origin 8.1” software.

mice [2] = test: Sucrose preference test, LPS-induced anhedonia; format: in vivo, mouse; details: LPS 1.25 mg kg^−1 i.p. mice, 15 mg kg^−1 s.c. same protocol
Experimental: Anhedonia, or the inability to experience pleasure, is a common symptom of depression. The mood regulatory role of 18 was studied against anhedonia evaluated in the sucrose preference test in animals treated with lipopolysaccharide (LPS), a model of neuroinflammation-induced depressive-like syndrome. Compound 18 (10 mg kg^−1 and 30 mg kg^−1) was daily p.o administered for five consecutive days. Twenty-four hours after the last 18 treatment, LPS 1.25 mg kg^−1 was intraperitoneally injected. Immediately after LPS injection, mice were placed in cages equipped with two bottles: a bottle of 2% sucrose solution and a bottle of water (unsweetened tap water). The consumption of the 2% sucrose solution was evaluated 6 h and 24 h after LPS injection. Amitriptyline (15 mg kg^−1) was used as the reference drug administered following the same protocol.
as §2
Lipopolysaccharide (LPS) from Escherichia coli was purchased from Sigma-Aldrich, (Milan, Italy) freshly dissolved in sterile saline, and injected intraperitoneally (i.p.) at the dose of 1.25 mg kg^−1 [49] after five consecutive days of treatment with compound 18, 1 h after the last administration of the compound. Behavioral tests were performed before 6 h and 24 h after LPS administration.
Mice were placed in cages equipped with a couple of bottles, one containing 2% sucrose solution, the second with water (unsweetened tap water). The consumption of the 2% sucrose solution was evaluated 6 h and 24 h after the beginning of the experiment. The preference index was calculated according to the following formula: preference index = volume consumed sucrose solution/(volume consumed sucrose solution + volume consumed water).
as §3

mice [3] = test: Tail suspension test; format: in vivo; details: mouse TST, 15 mg kg^−1 s.c., single dose, mean ± SEM of 10 mice; vehicle 99.0 ± 6.8
Experimental: as §1
A decrease in the duration of immobility is indicative of an antidepressant-like effect. […] Accordingly, a similar activity was shown in the tail suspension test (Table 5) where the immobility time was measured in the first 2 min, when animals react to the inescapable stress, and in the last 4 min of the test, when the behavioral despair is established. Immobility was defined as the absence of any limb or body movements, except those caused by respiration. A reduction in the duration of the immobility time is indicative of an antidepressant-like effect.
as §2, with “Compound 18 was administered per o.s. whereas amitriptyline was by a s.c. route following the most widely used approach reported in the literature.” left out
A piece of tape was adhered to the upper middle of the tail of each animal, creating a flap with the overlap of tape. […] The duration of the test was 6 min and the immobility time was measured in the first 2 min, when animals react to the inescapable stress, and in the last 4 min of the test, when the behavioral despair is established. […]
Behavioral tests were performed by visual observation by researchers blinded to the treatments. Results were expressed as means ± SEM, variance was analyzed by ANOVA. […] Data were analyzed using the “Origin 8.1” software.

hA2B AR = biological target: T1, hA2B AR (Homo sapiens, UniProt P29275); set-up: method as in PMID 30638876; details: inhibition of NECA-stimulated adenylyl cyclase activity, CHO cells; ref [34]; cited from earlier work
T1 construct: expressed in transfected cells; host or cells: CHO cells
T1 sequence (P29275 1-332): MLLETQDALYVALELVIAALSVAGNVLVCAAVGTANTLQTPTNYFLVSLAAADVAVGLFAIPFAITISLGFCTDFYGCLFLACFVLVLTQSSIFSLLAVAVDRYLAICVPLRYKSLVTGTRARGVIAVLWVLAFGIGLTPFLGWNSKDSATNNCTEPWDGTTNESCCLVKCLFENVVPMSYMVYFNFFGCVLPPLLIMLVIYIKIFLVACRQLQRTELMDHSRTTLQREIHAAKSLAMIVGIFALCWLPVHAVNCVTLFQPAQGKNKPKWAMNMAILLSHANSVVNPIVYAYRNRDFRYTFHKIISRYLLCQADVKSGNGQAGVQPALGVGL

Row | SMILES | Immobility Time (mice [1]) [s] | Sucrose Preference (%), 6 h (mice [2]; 6 h after LPS, vehicle + LPS 42.3 ± 3.1) [%] | Sucrose Preference (%), 24 h (mice [2]; 24 h after LPS, vehicle + LPS 38.0 ± 5.6) [%] | Immobility Time (mice [3]) [s] | IC50 (hA2B AR) [µM]
1 | CN(C)CCC=C1c2ccccc2CCc2ccccc21 [amitriptyline, reference compound] | 149.4 ± 4.6 | 69.1 ± 4.8 | 70.3 ± 6.4 | 61.6 ± 8.4 | 
2 | Nc1nc(-c2ccccc2)nc2sc(-c3ccccc3)nc12 [compound 20] |  |  |  |  | > 30
